For one test, the system named is NCI-H358 cells. As to the kind of experiment: 3D cell proliferation assay (Cell Titer-Glo 3D, 7 days). Type of test: cell-based. The conditions noted are these: NCI-H358 3D, ultra-low attachment plate. As for the experimental part:
NCI-H358 cells (ATCC® CRL-5807™) were plated in a 384-well Black/Clear Round Bottom Ultra-Low Attachment Microplate (Corning) in medium (RPMI-1640+10% FBS) at a density of 1000 cells in 50 μL per well, then incubated overnight at 37° C. and 5% CO2. Cells were treated with test compounds at 9 concentrations within a specified concentration range (e.g., 0.5 nM-10 μM) for generation of dose response curves. Test compounds were prepared by 1:3 serial dilution in DMSO from a specified starting concentration (e.g., 20 μM, 2 μM or 0.2 μM) and then added to wells of the assay plate in a total volume of 150 nL DMSO. The cells were further incubated at 37° C. and 5% CO2 for 7 days. Cell viability was assessed by adding 40 μL of Cell Titer-Glo® 3D reagent (Cat. No.: G9683, Promega) to each well and reading luminescence after mixing and incubation of the samples. The IC50 value of each test compound was calculated with XLFit curve fitting software.

A further test concerns the target KRAS G12C protein (Homo sapiens, UniProt P01116, G12C). Briefly: Nucleotide exchange assay (Method III, KRAS G12C/Raf-RBD TR-FRET). Format: biochemical. The conditions noted are these: SOS1-mediated exchange of GDP for GTP, 18 hr compound incubation. The procedure:
Method III. Inhibition of SOS1-mediated exchange of GDP for GTP on the KRAS G12C protein was measured in a biochemical assay that monitors association of KRAS G12C protein with the Ras-binding domain of Raf (Raf-RBD), where the association is coupled to exchange of GDP to GTP on the KRAS G12C protein. The assay was performed at WuXi AppTec (Shanghai, China). Compounds were serially diluted in 3-fold dilutions to 11 concentrations and spotted into the wells of an assay plate in a total volume of 150 nL DMSO per well. A 2× enzyme mix was prepared by diluting GDP-bound, His-tagged KRAS G12C to 25 nM in assay buffer. 10 μL/well of 2× enzyme mix was added to all wells, and the plate was sealed and incubated overnight (18 hr) at 23° C. 4×SOS1/GDP and 4×SOS1/GTP were prepared in assay buffer. 5 μL/well of 4×SOS1/GDP mix was added to negative control wells, 5 μL/well of 4×SOS1/GTP mix was added to the remaining wells, and the plate was further incubated at 23° C. for 1 hr. Finally, FLAG-tagged Raf-RBD is added to the reaction mixture along with a pair of FRET donor- and acceptor-conjugated antibodies specific for the FLAG-tagged Raf-RBD and His-tagged KRAS G12C proteins. A 4×Raf-RBD/Tb-anti-FLAG/D2-anti-His mix was prepared in assay buffer, and 5 μL/well of the mix was added to all wells, followed by incubation at room temperature for 2 hr. The TR-FRET signals, which increase with association of KRAS G12C and Raf-RBD, were measured on a Perkin Elmer Envision 2104 plate reader, and data were analyzed by non-linear regression to obtain IC50 values for inhibition by compounds. Table 2 includes results of the assay of Method III. ‘+++’ indicates IC50 values≤300 nM, ‘++’ indicates IC50 values between 300 nM-3 μM, and ‘+’ indicates IC50 values≥3 μM.
In general terms: Time-resolved FRET reads energy transfer from a long-lived donor to a nearby acceptor.

The subject of another test is MIA PaCa-2. Briefly: Cell proliferation assay panel (Cell Titer-Glo, 72 hr). Format: cell-based. As for the experimental part:
Potency of compounds was determined in cell proliferation assays in a panel of cancer cell lines. Cells were seeded in 384-well plates (Corning, Cat. #3765) at specified densities in 40 μL of culture medium and incubated overnight at 37° C. in a 5% CO2 incubator (culture conditions). With a robotic dispenser, serially diluted test compounds were added in a volume of 20 nL DMSO to wells in the culture plate to achieve the final desired concentrations of test compounds, and the cells were further incubated in culture conditions for 72 hr. The assay was terminated by addition of 25 μL of Cell Titer-Glo reagent (Promega, Madison, Wis.) to each well. Contents were mixed, the plate was incubated for 10 min at room temperature and luminescence was measured. The IC50 value of each test compound was calculated with XLFit curve fitting software. Results are shown in Table 4. ‘+++’ indicates IC50 values≤300 nM, ‘++’ indicates IC50 values between 300 nM-3 μM, and ‘+’ indicates IC50 values≥3 μM.

Where two headings read alike, the source gives them in different places.

KRAS G12C protein, sequence (P01116 1-188 isoform P01116-2 G12C): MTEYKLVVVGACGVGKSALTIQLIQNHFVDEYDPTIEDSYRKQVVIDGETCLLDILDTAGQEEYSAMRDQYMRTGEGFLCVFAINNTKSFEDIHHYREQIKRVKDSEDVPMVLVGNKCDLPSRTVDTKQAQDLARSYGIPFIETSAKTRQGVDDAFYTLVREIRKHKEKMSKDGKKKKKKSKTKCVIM

Regarding `C=CC(=O)N1CCN(c2nc(OC[C@@H]3CCCN3C)nc3c2COC(c2cccc4cccc(Cl)c24)C3)CC1` (single isomer, unassigned) [40 (Isomer A)], the 50% inhibitory concentration (IC50) (as a rule, the point on the concentration scale where inhibition reaches its midpoint) was 100 to 2000 nM in the test on NCI-H358 cells and no more than 300 nM at KRAS G12C protein.

For the compound `C=CC(=O)N1CCN(c2nc(OC[C@@H]3CCCN3C)nc3c2COC(c2cccc4cccc(Cl)c24)C3)CC1` (single isomer, unassigned) [40 (Isomer B)], the concentration for half-maximal inhibition (IC50) is no less than 2000 nM with NCI-H358 cells and no less than 3000 nM on KRAS G12C protein.

Turning to `C=C(F)C(=O)N1CCN(c2nc(OC[C@@H]3CCCN3C)nc3c2CO[C@H](c2cccc4cccc(Cl)c24)C3)C[C@@H]1CC#N` (single isomer, unassigned) [43 (Isomer A)], the IC50 with NCI-H358 cells (Homo sapiens, NCI-H358, 168 h) was no less than 2000 nM; on KRAS G12C protein, no less than 3000 nM. Turning to `C=C(F)C(=O)N1CCN(c2nc(OC[C@@H]3CC(F)(F)CN3C)nc3c2COC(c2cccc4cccc(Cl)c24)C3)C[C@@H]1CC#N` (single isomer, unassigned) [228 (Isomer A)], the half-inhibitory concentration (IC50) with NCI-H358 cells was no more than 100 nM; with MIA PaCa-2 (Homo sapiens, MIA PaCa-2, 72 h) it was 300 to 3000 nM; on KRAS G12C protein, no more than 300 nM. As for `C=C(F)C(=O)N1CCN(c2nc(OC[C@@H]3CC(F)(F)CN3C)nc3c2COC(c2cccc4cccc(Cl)c24)C3)C[C@@H]1CC#N` (single isomer, unassigned) [228 (Isomer B)], the figures for the IC50 in the test with NCI-H358 cells and on KRAS G12C protein were no less than 2000 nM and no less than 3000 nM, respectively. Regarding `C=C(Cl)C(=O)N1CCN(c2nc(OC[C@@H]3CCCN3C)nc3c2COC(c2cccc4cccc(Cl)c24)C3)C[C@@H]1CC#N` (single isomer, unassigned) [239 (Isomer B)], the IC50 in the test on NCI-H358 cells (Homo sapiens, NCI-H358, 168 h) was no more than 100 nM; in the test with MIA PaCa-2 (Homo sapiens, MIA PaCa-2, 72 h), no more than 300 nM; against KRAS G12C protein, no more than 300 nM.

As for `C=C(F)C(=O)N1CCN(c2nc(Oc3cccc4c3CCN(C)C4)nc3c2COC(c2cccc4cccc(Cl)c24)C3)C[C@@H]1CC#N` (single isomer, unassigned) [250 (Isomer B)], on KRAS G12C protein, the 50% inhibitory concentration (IC50) lay within 300 to 3000 nM. The same measure, in the same setting: as for `C=C(F)C(=O)N1CCN(c2nc(OC[C@@H]3CCCN3C)nc3c2COC(c2cccc4cccc(Cl)c24)C3(C)C)C[C@@H]1CC#N` (single isomer, unassigned) [258 (Isomer A)], the figure is no less than 3000 nM. With `C=C(F)C(=O)N1CCN(c2nc(OC[C@@H]3CCCN3C)nc3c2COC(c2cccc4cccc(Cl)c24)C3(C)C)C[C@@H]1CC#N` (single isomer, unassigned) [258 (Isomer B)], the 50% inhibitory concentration (IC50) was no more than 100 nM in the test with NCI-H358 cells (Homo sapiens, NCI-H358, 168 h); no more than 300 nM in the test with MIA PaCa-2 (Homo sapiens, MIA PaCa-2, 72 h); no more than 300 nM against KRAS G12C protein. Turning to `C=C(F)C(=O)N1CCN(c2nc(OC[C@@H]3CCCN3C)nc3c2COC(c2nc(N)cc4ccccc24)C3)C[C@@H]1CC#N` (single isomer, unassigned) [259 (Isomer A)], the IC50 is no less than 3000 nM in the test with MIA PaCa-2 and 300 to 3000 nM against KRAS G12C protein.

Take `C=C(F)C(=O)N1CCN(c2nc(OC[C@@H]3CCCN3C)nc3c2COC(c2nc(N)cc4ccccc24)C3)C[C@@H]1CC#N` (single isomer, unassigned) [259 (Isomer B)]: the IC50 in the test on MIA PaCa-2 and against KRAS G12C protein was no more than 300 nM throughout. For the compound `C=C(F)C(=O)N1CCN(c2nc(OC[C@@H]3CCCN3C)nc3c2COC(c2cccc4sc(N)nc24)C3)C[C@@H]1CC#N` (single isomer, unassigned) [260 (Isomer A)], the IC50 was 100 to 2000 nM with NCI-H358 cells (Homo sapiens, NCI-H358, 168 h); 300 to 3000 nM in the test on MIA PaCa-2 (Homo sapiens, MIA PaCa-2, 72 h); no more than 300 nM against KRAS G12C protein. For the compound `C=C(F)C(=O)N1CCN(c2nc(OC[C@@H]3CCCN3C)nc3c2COC(c2cccc4sc(N)nc24)C3)C[C@@H]1CC#N` (single isomer, unassigned) [260 (Isomer B)], on KRAS G12C protein, the IC50 is no more than 300 nM. For the compound `C=C(F)C(=O)N1CCN(c2nc(OCC34CCCN3CCC4)nc3c2COC(c2cccc4cccc(Cl)c24)C3)C[C@@H]1CC#N` (single isomer, unassigned) [266 (Isomer A)], the IC50 was in the range of 300 to 3000 nM in the test on MIA PaCa-2 (Homo sapiens, MIA PaCa-2, 72 h) and 300 to 3000 nM against KRAS G12C protein.

For `C=C(F)C(=O)N1CCN(c2nc(OCC34CCCN3CCC4)nc3c2COC(c2cccc4cccc(Cl)c24)C3)C[C@@H]1CC#N` (single isomer, unassigned) [266 (Isomer B)], the IC50 with NCI-H358 cells (Homo sapiens, NCI-H358, 168 h) was no more than 100 nM; in the test on MIA PaCa-2 it was no more than 300 nM; on KRAS G12C protein, no more than 300 nM. For `C=C(F)C(=O)N1CCN(c2nc(OC[C@H]3CCCN3C)nc3c2COC(c2cccc4cccc(Cl)c24)C3)C[C@@H]1CC#N` (single isomer, unassigned) [267 (Isomer A)], the half-inhibitory concentration (IC50) is no less than 3000 nM with MIA PaCa-2 and 300 to 3000 nM on KRAS G12C protein. For `C=C(F)C(=O)N1CCN(c2nc(OC[C@H]3CCCN3C)nc3c2COC(c2cccc4cccc(Cl)c24)C3)C[C@@H]1CC#N` (single isomer, unassigned) [267 (Isomer B)], in that order: no more than 300 nM and no more than 300 nM. In the case of `C=C(F)C(=O)N1CCN(c2nc(OC3CN(C)CC3C)nc3c2COC(c2cccc4cccc(Cl)c24)C3)C[C@@H]1CC#N` (single isomer, unassigned) [272 (Isomer A)], the IC50 against KRAS G12C protein is no less than 3000 nM.

At KRAS G12C protein, `C=C(F)C(=O)N1CCN(c2nc(OC3CN(C)CC3C)nc3c2COC(c2cccc4cccc(Cl)c24)C3)C[C@@H]1CC#N` (single isomer, unassigned) [272 (Isomer B)] had an IC50 of no less than 3000 nM. On KRAS G12C protein, `C=C(F)C(=O)N1CCN(c2nc(OC3CN(C)CC3C)nc3c2COC(c2cccc4cccc(Cl)c24)C3)C[C@@H]1CC#N` (single isomer, unassigned) [272 (Isomer C)] came in with an IC50 of no more than 300 nM. At KRAS G12C protein, `C=C(F)C(=O)N1CCN(c2nc(OC3CN(C)CC3C)nc3c2COC(c2cccc4cccc(Cl)c24)C3)C[C@@H]1CC#N` (single isomer, unassigned) [272 (Isomer D)] came in with an IC50 of 300 to 3000 nM. The same measure, in the same setting: under `C=C(F)C(=O)N1CCN(c2nc(OC[C@@H]3CCCN3C)nc3c2CC=C(c2cccc4cccc(Cl)c24)O3)C[C@H]1C` [Compound 154, 1-((R)-4-(7-(8-chloronaphthalen-1-yl)-2-(((S)-1-methylpyrrolidin-2-yl)methoxy)-5H-pyrano[2,3-d]pyrimidin-4-yl)-2-methylpiperazin-1-yl)-2-fluoroprop-2-en-1-one] stands no less than 3000 nM; under `C=C(F)C(=O)N1CCN(c2nc(OC[C@@H]3CCCN3C)nc3c2CC=C(c2cccc4cccc(Cl)c24)O3)CC1` [Compound 174, (S)-1-(4-(7-(8-chloronaphthalen-1-yl)-2-((1-methylpyrrolidin-2-yl)methoxy)-5H-pyrano[2,3-d]pyrimidin-4-yl)piperazin-1-yl)-2-fluoroprop-2-en-1-one], no less than 3000 nM. As to `C=C(F)C(=O)N1CCN(c2nc(OC[C@@H]3CCCN3C)nc3c2CC=C(c2cccc4cccc(Cl)c24)O3)C[C@@H]1CC#N` [Compound 178, 2-((S)-4-(7-(8-chloronaphthalen-1-yl)-2-(((S)-1-methylpyrrolidin-2-yl)methoxy)-5H-pyrano[2,3-d]pyrimidin-4-yl)-1-(2-fluoroacryloyl)piperazin-2-yl)acetonitrile], the IC50 was 100 to 2000 nM in the test with NCI-H358 cells (Homo sapiens, NCI-H358, 168 h) and no more than 300 nM against KRAS G12C protein. For `C=CC(=O)N1CCN(c2nc(OC[C@@H]3CCCN3C)nc3c2CC=C(c2cccc4cccc(Cl)c24)O3)C[C@@H]1CC#N` [Compound 181, 2-((S)-1-acryloyl-4-(7-(8-chloronaphthalen-1-yl)-2-(((S)-1-methylpyrrolidin-2-yl)methoxy)-5H-pyrano[2,3-d]pyrimidin-4-yl)piperazin-2-yl)acetonitrile], in that order: no more than 100 nM and no more than 300 nM.

The values above are taken from US20230023009A1, “HETEROCYCLIC COMPOUNDS AND METHODS OF USE THEREOF” (SPARCBIO LLC, priority 2020, published 2023).
